Drawing on ChEMBL document CHEMBL6134843, “HDAC11 Inhibition as a Potential Therapeutic Strategy for AML: Target Identification, Lead Discovery, Antitumor Potency, and Mechanism Investigation” (J Med Chem, 2025), this text covers Activity, Tmax and IC50 for 1 molecule.

pIC50: −log10 of the molar value. The source made the active and inactive calls. The calls are words filed in the database; no cut-off is given here.

In series [1] the test system is Acute myeloid leukemic cell. In words: Induction of ferroptosis in human Acute myeloid leukemic cells assessed as upregulation of FTH1 protein level at 2.5 to 10 uM by Western blot analysis. The following applies: dose 2.5-10 µM. The class given is functional, cell-based. (In general: A western blot detects proteins with antibodies after separation by electrophoresis.)

The subject of series [2] is U-937. Nature of the series: Effect on WT1 gene expression in human U-937 cells at 10 uM incubated for 48 hrs by RT-qPCR. The class given is functional, cell-based. (Real-time PCR tracks product formation cycle by cycle.)
Series [3] has as its system U-937. Nature of the series: Upregulation of p62 mRNA level in human U-937 cells by qRT-PCR analysis. The format is functional, cell-based.
In series [4] the test system is OCI-AML2. In words: Induction of cell apoptosis in human OCI-AML2 cells incubated for 48 hrs by Annexin V/DAPI staining based flow cytometry analysis. The class given is functional. The following applies: dose 2.5-10 µM. In general terms: In flow cytometry, cells or beads pass a laser one at a time.
Series [5] concerns U-937. In words: Effect on CCND2 gene expression in human U-937 cells at 10 uM incubated for 48 hrs by RT-qPCR. The format is functional, cell-based.
The nature of series [6]: Toxicity in female C57BL/6 mouse model assessed as change in body weight at 50 mg/kg, ip administered once daily. The class given is organism-based. The note with it: in vivo.
Series [7] deals with OCI-AML2. Nature of the series: Induction of ferroptosis in human OCI-AML2 cells assessed as increase in cellular ROS level incubated for 48 hrs by DCFH-DA staining based flow cytometry analysis. The format is functional, cell-based. The following applies: dose 2.5-10 µM.
The subject of series [8] is U-937. Nature of the series: Effect on DDIT3 gene expression in human U-937 cells at 10 uM incubated for 48 hrs by RT-qPCR. The format is functional, cell-based.
The subject of series [9] is Acute myeloid leukemic cell. In words: Induction of ferroptosis in human Acute myeloid leukemic cells assessed as upregulation of TF mRNA level by RT-qPCR analysis. The class given is functional, cell-based.
Series [10] has as its system U-937. In words: Induction of ferroptosis in human U-937 cells assessed as increase in lipid peroxidation level incubated for 48 hrs by C11-BODIPY 581/591 staining based flow cytometry analysis. The class given is functional, cell-based. The note with it: dose 2.5-10 µM.
Series [11] concerns U-937. In words: Effect on MYC gene expression in human U-937 cells at 10 uM incubated for 48 hrs by RT-qPCR. The format is functional, cell-based.
The subject of another series is MLL-AF9. Nature of the series: Synergistic antitumor activity against mouse MLL-AF9 at 1 to 4 uM in presence of cytarabine by CCK-8 assay. The following applies: dose 1-4 µM. The class given is functional, cell-based.
The test system of series [12] is Acute myeloid leukemic cell. Nature of the series: Induction of ferroptosis in human Acute myeloid leukemic cells assessed as upregulation of TF protein level at 2.5 to 10 uM by Western blot analysis. The class given is functional, cell-based. The following applies: dose 2.5-10 µM.
A short description of series [13]: Tmax in ICR(CD-1) mouse at 50 mg/kg, ip treated up to 24 hrs by LC-MS/MS analysis. The format is ADME, organism-based. The following applies: in vivo.
For series [14], the system named is Acute myeloid leukemic cell. In words: Induction of ferroptosis in human Acute myeloid leukemic cells assessed as upregulation of FTL mRNA level by RT-qPCR analysis. The format is functional, cell-based.
A further series relates to MV4-11. In words: Antiproliferative activity against human MV4-11 cells assessed as cell growth inhibition incubated for 2 days by CCK-8 assay. The note with it: MV4-11, 48 h.
Series [15] concerns Acute myeloid leukemic cell. In words: Induction of ferroptosis in human Acute myeloid leukemic cells assessed as downregulation of GPX4 level by Western blot analysis. The format is functional, cell-based.
The next series addresses Histone deacetylase 4 (Homo sapiens, UniProt P56524). Nature of the series: Inhibition of N-terminal GST-tagged C-terminal His-tagged human HDAC4 (627 to 1084 end residues) expressed in baculovirus expression system in Sf9 cells using Boc-Lys-(trifluoroacetyl)-AMC as substrate preincubated with enzyme for 1 hr followed by substrate addition and measured after 30 mins by fluorescence analysis.

In series [16] the test system is Acute myeloid leukemic cell. In words: Induction of ferroptosis in human Acute myeloid leukemic cells assessed as […] of ACSL4 mRNA level by RT-qPCR analysis. The class given is functional, cell-based.

Sequence of Histone deacetylase 4 (P56524 whole entry): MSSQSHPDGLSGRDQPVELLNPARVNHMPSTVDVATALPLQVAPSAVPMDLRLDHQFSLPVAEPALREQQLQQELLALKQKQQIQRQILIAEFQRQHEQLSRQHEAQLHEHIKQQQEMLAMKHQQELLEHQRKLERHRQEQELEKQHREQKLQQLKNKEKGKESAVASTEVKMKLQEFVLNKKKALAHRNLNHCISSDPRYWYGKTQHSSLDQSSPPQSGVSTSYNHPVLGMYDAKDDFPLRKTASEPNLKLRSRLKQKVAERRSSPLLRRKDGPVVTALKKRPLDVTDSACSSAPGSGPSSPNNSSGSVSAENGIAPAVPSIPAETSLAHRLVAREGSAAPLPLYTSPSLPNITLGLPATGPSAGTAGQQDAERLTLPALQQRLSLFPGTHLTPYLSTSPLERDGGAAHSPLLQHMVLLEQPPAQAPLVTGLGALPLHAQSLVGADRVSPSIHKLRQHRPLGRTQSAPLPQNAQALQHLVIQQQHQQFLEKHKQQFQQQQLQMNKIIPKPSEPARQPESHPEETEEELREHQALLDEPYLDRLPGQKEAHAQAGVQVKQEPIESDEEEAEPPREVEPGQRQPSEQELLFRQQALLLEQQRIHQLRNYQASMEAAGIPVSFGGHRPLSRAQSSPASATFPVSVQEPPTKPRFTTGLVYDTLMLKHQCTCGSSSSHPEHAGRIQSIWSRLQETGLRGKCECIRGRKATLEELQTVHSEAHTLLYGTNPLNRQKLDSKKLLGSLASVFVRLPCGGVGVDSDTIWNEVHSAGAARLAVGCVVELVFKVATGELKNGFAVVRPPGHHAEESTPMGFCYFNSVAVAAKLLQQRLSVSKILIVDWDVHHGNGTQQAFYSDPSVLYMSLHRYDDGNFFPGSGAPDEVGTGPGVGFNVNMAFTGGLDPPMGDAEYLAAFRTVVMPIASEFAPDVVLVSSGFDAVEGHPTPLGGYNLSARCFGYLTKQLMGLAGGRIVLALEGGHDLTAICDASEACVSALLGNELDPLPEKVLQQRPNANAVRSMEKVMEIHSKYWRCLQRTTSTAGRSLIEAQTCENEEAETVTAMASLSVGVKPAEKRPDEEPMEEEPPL

Usually Tmax stands for the time at which the peak concentration occurs. What is called pIC50 is −log10 of the IC50, conventionally taken in molar units. Consider `O=C(NO)c1cccc2[nH]c(C#Cc3cccc(C(F)(F)F)c3)cc12`, for which the result (in [1]; in the series on U-937 [2]; in the series on U-937 [3]; with U-937 [5]; with U-937 [8]; in series [9]) was Active. The result (with U-937 [11]; in the series on MLL-AF9; in [12]; in [14]; in [15]; in series [16]) was Active. The Activity entry was “Dose-dependent-effect” with OCI-AML2 [4], “Non-toxic” in series [6], “Dose-dependent-effect” with OCI-AML2 [7] and “Dose-dependent-effect” in the series on U-937 [10]. For the same molecule, the Tmax in [13] was determined as 4.8 min. The pIC50 with MV4-11 was at least 5.00; against Histone deacetylase 4, under 4.00.
